Consider six molecules from US12723063B2, “GIPR-agonist compounds” (Eli Lilly and Company, priority 2019, dated 2026).

SMILES strings stand for the structures. *1 amine or outer side, *2 acyl side, *3 side chain or, on linkers, in order; H or OH if unused. Where a SMILES comes first, the peptide text is derived from it. Side-chain parts run from the residue outwards. [ ]: non-standard residue; d: D form. The star is where a group is joined. C20 diacid = O=C(O)CCCCCCCCCCCCCCCCCCC(=O)*; γGlu = O=C(O)[C@H](CCC(=O)[*:2])N[*:1]; αMeF = C[C@](N)(Cc1ccccc1)C(=O)O; 4Pal = N[C@@H](Cc1ccncc1)C(=O)O; αMeL = CC(C)C[C@](C)(N)C(=O)O; AEEA = NCCOCCOCC(=O)O; Aib = CC(C)(N)C(=O)O

Assay [1] deals with T1, human GcgR (Homo sapiens, UniProt P47871).
T1 construct: expressed in transfected cells; crude membranes
T1 sequence (P47871 26-477): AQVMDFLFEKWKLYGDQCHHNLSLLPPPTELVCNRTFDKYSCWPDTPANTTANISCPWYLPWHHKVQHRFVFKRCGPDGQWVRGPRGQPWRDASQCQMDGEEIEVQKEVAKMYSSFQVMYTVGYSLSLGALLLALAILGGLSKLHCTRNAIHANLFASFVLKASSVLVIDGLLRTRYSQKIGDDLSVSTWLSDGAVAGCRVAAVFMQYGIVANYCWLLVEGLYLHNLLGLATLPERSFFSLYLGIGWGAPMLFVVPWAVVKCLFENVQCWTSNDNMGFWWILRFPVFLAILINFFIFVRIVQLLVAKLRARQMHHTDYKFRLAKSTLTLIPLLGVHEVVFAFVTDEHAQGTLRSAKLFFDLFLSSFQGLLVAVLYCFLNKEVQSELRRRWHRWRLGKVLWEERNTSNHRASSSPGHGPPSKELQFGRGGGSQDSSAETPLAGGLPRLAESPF
The experiment in a line: [125I]-Glucagon binding, SPA with WGA beads, 0.1% bacitracin. The settings on record: geometric mean, read-out: hGcgR Ki. In short, it runs like this:
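SPA competition binding with WGA beads on crude membranes from HEK293 cells stably expressing hGcgR. Buffer: 25 mM HEPES pH 7.4, 2.5 mM CaCl2, 1 mM MgCl2, 0.1% bacitracin, 0.003% Tween-20; 10-point 3-fold dilutions, NSB with 1 μM Gcg.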

For assay [2], the target named is T2, human GIPR (Homo sapiens, UniProt P48546).
T2 construct: expressed in transfected cells; crude membranes
T2 sequence (P48546 22-466): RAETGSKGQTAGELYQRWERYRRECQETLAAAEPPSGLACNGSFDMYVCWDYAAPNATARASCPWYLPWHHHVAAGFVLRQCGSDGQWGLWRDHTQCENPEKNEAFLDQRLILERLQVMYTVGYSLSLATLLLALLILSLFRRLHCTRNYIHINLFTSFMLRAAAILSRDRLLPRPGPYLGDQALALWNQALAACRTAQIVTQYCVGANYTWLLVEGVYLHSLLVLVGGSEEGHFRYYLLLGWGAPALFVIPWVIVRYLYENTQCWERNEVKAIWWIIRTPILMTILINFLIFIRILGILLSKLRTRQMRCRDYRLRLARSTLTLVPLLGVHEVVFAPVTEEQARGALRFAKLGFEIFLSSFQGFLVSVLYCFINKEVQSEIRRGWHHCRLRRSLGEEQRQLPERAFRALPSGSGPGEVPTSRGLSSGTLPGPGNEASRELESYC
In words: [125I]-GIP binding, SPA with WGA beads, 0.1% bacitracin. The settings on record: geometric mean, read-out: hGIPR Ki. The method, boiled down:
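Ki values are geometric means (SEM, n independent days), derived from four-parameter nonlinear regression of IC50. Membranes came from hGIPR-expressing CHO cells.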

For orientation: Ki means a measure of affinity in units of concentration, obtained from inhibition or displacement. As for `CC[C@H](C)[C@H](NC(=O)[C@H](CO)NC(=O)[C@H](Cc1ccc(O)cc1)NC(=O)[C@H](CC(=O)O)NC(=O)[C@H](CO)NC(=O)[C@@H](NC(=O)[C@](C)(Cc1ccccc1)NC(=O)[C@@H](NC(=O)CNC(=O)[C@H](CCC(=O)O)NC(=O)C(C)(C)NC(=O)[C@@H](N)Cc1ccc(O)cc1)[C@@H](C)O)[C@@H](C)CC)C(=O)N[C@@H](C)C(=O)N[C@@H](CC(C)C)C(=O)N[C@@H](CC(=O)O)C(=O)N[C@@H](CCCCN)C(=O)N[C@@H](CCCCNC(=O)COCCOCCNC(=O)COCCOCCNC(=O)CC[C@H](NC(=O)CCCCCCCCCCCCCCCCCCC(=O)O)C(=O)O)C(=O)N[C@@H](Cc1c[nH]cn1)C(=O)N[C@@H](CCC(N)=O)C(=O)NC(C)(C)C(=O)N[C@@H](CC(=O)O)C(=O)N[C@@H](Cc1ccccc1)C(=O)N[C@H](C(=O)N[C@@H](CCC(=O)O)C(=O)N[C@@H](Cc1ccncc1)C(=O)N[C@@H](CC(C)C)C(=O)N[C@@H](CC(C)C)C(=O)N[C@@H](CCC(=O)O)C(=O)NCC(=O)NCC(=O)N1CCC[C@H]1C(=O)N[C@@H](CO)C(=O)N[C@@H](CO)C(=O)NCC(=O)N[C@@H](C)C(=O)N1CCC[C@H]1C(=O)N1CCC[C@H]1C(=O)N1CCC[C@H]1C(=O)N[C@@H](CO)C(N)=O)C(C)C` [Example 44] (H-Y[Aib]EGT[αMeF]ISDYSIALDKK([AEEA-AEEA-γGlu-C20 diacid])HQ[Aib]DFVE[4Pal]LLEGGPSSGAPPPS-NH2), the inhibition constant (Ki) in assay [1] worked out at 50000 pM; in assay [2] it was 59 pM.

Take `CC[C@H](C)[C@H](NC(=O)[C@H](Cc1ccccc1)NC(=O)[C@@H](NC(=O)CNC(=O)[C@H](CCC(=O)O)NC(=O)C(C)(C)NC(=O)[C@@H](N)Cc1ccc(O)cc1)[C@@H](C)O)C(=O)N[C@@H](CO)C(=O)N[C@@H](CC(=O)O)C(=O)N[C@@H](Cc1ccc(O)cc1)C(=O)N[C@@H](CO)C(=O)N[C@H](C(=O)N[C@@](C)(CC(C)C)C(=O)N[C@@H](CC(C)C)C(=O)N[C@@H](CC(=O)O)C(=O)N[C@@H](CCCCN)C(=O)N[C@@H](CCCCNC(=O)COCCOCCNC(=O)COCCOCCNC(=O)CC[C@H](NC(=O)CCCCCCCCCCCCCCCCCCC(=O)O)C(=O)O)C(=O)N[C@@H](Cc1c[nH]cn1)C(=O)N[C@@H](CCC(N)=O)C(=O)NC(C)(C)C(=O)N[C@@H](CC(=O)O)C(=O)N[C@@H](Cc1ccccc1)C(=O)N[C@H](C(=O)N[C@@H](CCC(=O)O)C(=O)N[C@@H](Cc1ccncc1)C(=O)N[C@@H](CC(C)C)C(=O)N[C@@H](CC(C)C)C(=O)N[C@@H](CCC(=O)O)C(=O)N[C@H](C(=O)NCC(=O)N1CCC[C@H]1C(=O)N[C@@H](CO)C(=O)N[C@@H](CO)C(=O)NCC(=O)N[C@@H](C)C(=O)N1CCC[C@H]1C(=O)N1CCC[C@H]1C(=O)N1CCC[C@H]1C(=O)N[C@@H](CO)C(N)=O)[C@@H](C)O)C(C)C)[C@@H](C)CC` [Example 45] (H-Y[Aib]EGTFISDYSI[αMeL]LDKK([AEEA-AEEA-γGlu-C20 diacid])HQ[Aib]DFVE[4Pal]LLETGPSSGAPPPS-NH2): the inhibition constant (Ki) in assay [1] worked out at 660000 pM; in assay [2], 66.3 pM.

Turning to `CC[C@H](C)[C@H](NC(=O)[C@H](Cc1ccccc1)NC(=O)[C@@H](NC(=O)CNC(=O)[C@H](CCC(=O)O)NC(=O)C(C)(C)NC(=O)[C@@H](N)Cc1ccc(O)cc1)[C@@H](C)O)C(=O)N[C@@H](CO)C(=O)N[C@@H](CC(=O)O)C(=O)N[C@@H](Cc1ccc(O)cc1)C(=O)N[C@@H](CO)C(=O)N[C@H](C(=O)N[C@@](C)(CC(C)C)C(=O)N[C@@H](CC(C)C)C(=O)N[C@@H](CC(=O)O)C(=O)N[C@@H](CCCCN)C(=O)N[C@@H](CCCCNC(=O)COCCOCCNC(=O)COCCOCCNC(=O)CC[C@H](NC(=O)CCCCCCCCCCCCCCCCCCC(=O)O)C(=O)O)C(=O)N[C@@H](Cc1c[nH]cn1)C(=O)N[C@@H](CCC(N)=O)C(=O)NC(C)(C)C(=O)N[C@@H](CC(=O)O)C(=O)N[C@@H](Cc1ccccc1)C(=O)N[C@H](C(=O)N[C@@H](CCC(=O)O)C(=O)N[C@@H](Cc1ccncc1)C(=O)N[C@@H](CC(C)C)C(=O)N[C@@H](CC(C)C)C(=O)N[C@@H](CCC(=O)O)C(=O)N[C@@H](CCC(N)=O)C(=O)NCC(=O)N1CCC[C@H]1C(=O)N[C@@H](CO)C(=O)N[C@@H](CO)C(=O)NCC(=O)N[C@@H](C)C(=O)N1CCC[C@H]1C(=O)N1CCC[C@H]1C(=O)N1CCC[C@H]1C(=O)N[C@@H](CO)C(N)=O)C(C)C)[C@@H](C)CC` [Example 46] (H-Y[Aib]EGTFISDYSI[αMeL]LDKK([AEEA-AEEA-γGlu-C20 diacid])HQ[Aib]DFVE[4Pal]LLEQGPSSGAPPPS-NH2), the values for the inhibitory constant (Ki) in assay [1] and in assay [2] were 435000 pM and 31.9 pM, respectively.

`CC[C@H](C)[C@H](NC(=O)[C@H](Cc1ccccc1)NC(=O)[C@@H](NC(=O)CNC(=O)[C@H](CCC(=O)O)NC(=O)C(C)(C)NC(=O)[C@@H](N)Cc1ccc(O)cc1)[C@@H](C)O)C(=O)N[C@@H](CO)C(=O)N[C@@H](CC(=O)O)C(=O)N[C@@H](Cc1ccc(O)cc1)C(=O)N[C@@H](CO)C(=O)N[C@H](C(=O)N[C@@](C)(CC(C)C)C(=O)N[C@@H](CC(C)C)C(=O)N[C@@H](CC(=O)O)C(=O)N[C@@H](CCCCN)C(=O)N[C@@H](CCCCNC(=O)COCCOCCNC(=O)COCCOCCNC(=O)CC[C@H](NC(=O)CCCCCCCCCCCCCCCCCCC(=O)O)C(=O)O)C(=O)N[C@@H](Cc1c[nH]cn1)C(=O)N[C@@H](CCC(N)=O)C(=O)NC(C)(C)C(=O)N[C@@H](CC(=O)O)C(=O)N[C@@H](Cc1ccccc1)C(=O)N[C@H](C(=O)N[C@@H](CCC(=O)O)C(=O)N[C@@H](Cc1ccncc1)C(=O)N[C@@H](CC(C)C)C(=O)N[C@@H](CC(C)C)C(=O)N[C@@H](CCC(=O)O)C(=O)NCC(=O)NCC(=O)N1CCC[C@H]1C(=O)N[C@@H](CO)C(=O)N[C@@H](CO)C(=O)NCC(=O)N[C@@H](C)C(=O)N1CCC[C@H]1C(=O)N1CCC[C@H]1C(=O)N1CCC[C@H]1C(=O)N[C@@H](CO)C(N)=O)C(C)C)[C@@H](C)CC` [Example 47] (H-Y[Aib]EGTFISDYSI[αMeL]LDKK([AEEA-AEEA-γGlu-C20 diacid])HQ[Aib]DFVE[4Pal]LLEGGPSSGAPPPS-NH2): the inhibitory constant (Ki) in assay [1] came to 175000 pM; in assay [2], 45.2 pM.

Regarding `CC[C@H](C)[C@H](NC(=O)[C@H](Cc1ccccc1)NC(=O)[C@@H](NC(=O)CNC(=O)[C@H](CCC(=O)O)NC(=O)C(C)(C)NC(=O)[C@@H](N)Cc1ccc(O)cc1)[C@@H](C)O)C(=O)N[C@@H](CO)C(=O)N[C@@H](CC(=O)O)C(=O)N[C@@H](Cc1ccc(O)cc1)C(=O)N[C@@H](CO)C(=O)N[C@H](C(=O)N[C@@](C)(CC(C)C)C(=O)N[C@@H](CC(C)C)C(=O)N[C@@H](CC(=O)O)C(=O)N[C@@H](CCCCN)C(=O)N[C@@H](CCCCNC(=O)COCCOCCNC(=O)COCCOCCNC(=O)CC[C@H](NC(=O)CCCCCCCCCCCCCCCCCCC(=O)O)C(=O)O)C(=O)N[C@@H](Cc1c[nH]cn1)C(=O)N[C@@H](CCC(N)=O)C(=O)NC(C)(C)C(=O)N[C@@H](CC(=O)O)C(=O)N[C@@H](Cc1ccccc1)C(=O)N[C@H](C(=O)N[C@@H](CCC(=O)O)C(=O)N[C@@H](Cc1ccncc1)C(=O)N[C@@H](CC(C)C)C(=O)N[C@@H](CC(C)C)C(=O)N[C@@H](C)C(=O)NCC(=O)NCC(=O)N1CCC[C@H]1C(=O)N[C@@H](CO)C(=O)N[C@@H](CO)C(=O)NCC(=O)N[C@@H](C)C(=O)N1CCC[C@H]1C(=O)N1CCC[C@H]1C(=O)N1CCC[C@H]1C(=O)N[C@@H](CO)C(N)=O)C(C)C)[C@@H](C)CC` [Example 48], the figures for the Ki in assay [1] and in assay [2] were 267000 pM and 49.8 pM, respectively.

In the case of `CC[C@H](C)[C@H](NC(=O)[C@H](Cc1ccccc1)NC(=O)[C@@H](NC(=O)CNC(=O)[C@H](CCC(=O)O)NC(=O)C(C)(C)NC(=O)[C@@H](N)Cc1ccc(O)cc1)[C@@H](C)O)C(=O)N[C@@H](CO)C(=O)N[C@@H](CC(=O)O)C(=O)N[C@@H](Cc1ccc(O)cc1)C(=O)N[C@@H](CO)C(=O)N[C@H](C(=O)N[C@@](C)(CC(C)C)C(=O)N[C@@H](CC(C)C)C(=O)N[C@@H](CC(=O)O)C(=O)N[C@@H](CCCCN)C(=O)N[C@@H](CCCCNC(=O)COCCOCCNC(=O)COCCOCCNC(=O)CC[C@H](NC(=O)CCCCCCCCCCCCCCCCC(=O)O)C(=O)O)C(=O)N[C@@H](Cc1c[nH]cn1)C(=O)N[C@@H](CCC(N)=O)C(=O)NC(C)(C)C(=O)N[C@@H](CC(=O)O)C(=O)N[C@@H](Cc1ccccc1)C(=O)N[C@H](C(=O)N[C@@H](CCC(=O)O)C(=O)N[C@@H](Cc1ccncc1)C(=O)N[C@@H](CC(C)C)C(=O)N[C@@H](CC(C)C)C(=O)N[C@@H](C)C(=O)NCC(=O)NCC(=O)N1CCC[C@H]1C(=O)N[C@@H](CO)C(=O)N[C@@H](CO)C(=O)NCC(=O)N[C@@H](C)C(=O)N1CCC[C@H]1C(=O)N1CCC[C@H]1C(=O)N1CCC[C@H]1C(=O)N[C@@H](CO)C(N)=O)C(C)C)[C@@H](C)CC` [Example 49], the Ki in assay [1] was more than 960000 pM; in assay [2], 51.2 pM.
